Holding throughout (experiment): NCI tumour cell line growth inhibition, 48 h
In experiment [1] the test system is MDA-N.
Experiment [2] relates to SNB-78 CNS.
Experiment [3] deals with M19-MEL melanoma.
Experiment [4] deals with RXF-631 renal.
In experiment [5] the test system is LXFL 529 NSCLC.
In experiment [6] the test system is HOP-18 NSCLC.
The subject of experiment [7] is KM20L2 colon.
Experiment [8] concerns DLD-1 colon.
The test system of experiment [9] is DMS 114 small cell lung.

Values joined by “and” are separate entries in the source; they are usually repeats but may differ in a detail not shown here. Equal values may be shown once.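 Method: 48-hour compound exposure of cells in 96-well plates, five concentrations, linear interpolation of endpoints. GI50 is the concentration that inhibits growth by half. The concentration for full growth arrest is given as TGI.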 Bounds are passed on as bounds.

Consider `Cc1cc(O)c2c(c1)C(=O)C=CC2=O`, for which the TGI in experiment [1] is 9.13 µM and 4.68 µM.

For `COC(=O)C1C(C(=O)OC)C2C(=O)C3C(C(=O)OC)C(C(=O)OC)C3C(=O)C12` (stereo not drawn), the TGI in experiment [2], in [3], in [4], in experiment [5], in experiment [6] and in experiment [7] was > 100 µM in each case.

In the case of `CC1=N/C(=C\c2ccc(/C=C3/N=C(C)OC3=O)cc2)C(=O)O1`, the TGI in [2], in experiment [3], in [8], in experiment [5], in [6] and in experiment [9] was > 100 µM in each case. Further, the TGI in experiment [7] was > 100 µM.

With `COc1cc(Nc2cnc3ccc(C(F)(F)F)cc3n2)cc(OC)c1OC`, the TGI in experiment [2] was > 100 µM; in experiment [3], > 100 µM; in [5], > 100 µM; in experiment [6], > 100 µM; in experiment [7], 22.5 µM.

`COC(=O)/C=C(/C(=O)OC)C1(C)c2cc(C(=O)OC)c(C(=O)OC)c(N)c2C(=N)N1c1ccccc1` (stereo not drawn): the TGI came to 41.9 µM in experiment [3]; 29.4 µM in [8]; 86.9 µM in experiment [4]; 38.6 µM in [5]; 62 µM in experiment [6]; 31.6 µM in experiment [9]. Moreover, in [7], the TGI stood at 34.8 µM.

`Cc1ccc(S(=O)(=O)OCC/C(=C\[Si](C)(C)C)c2ccccc2)cc1`: the TGI in experiment [3], in [8], in [5], in experiment [6], in experiment [9] and in [7] was > 100 µM each time.

As for `O=C1Oc2ccccc2C(=O)/C1=C1/C=C(c2ccccc2)SS1`, the TGI in experiment [1] was > 100 µM.

Consider `O=C1NC(=O)c2c1n(Cc1ccccc1)c(=O)n2Cc1ccccc1`, for which the TGI in experiment [2], in experiment [3], in [8], in experiment [5], in experiment [6] and in experiment [9] was > 100 µM each time. Also, the TGI in experiment [7] is > 100 µM.

For `CCOC(=O)c1nc(C)oc1C(F)(F)F`, the TGI in experiment [2], in experiment [3], in experiment [8], in experiment [5], in [9] and in [7] was > 100 µM each time.

As for `COc1nc2c(c(O)c(C)c(=O)n2OC2OCC(OC(C)=O)C(OC(C)=O)C2OC(C)=O)c(=O)n1C` (stereo not drawn), the TGI in experiment [2], in [3], in experiment [8], in experiment [5], in experiment [9] and in experiment [7] was > 100 µM throughout.

On to `O=C1[C@@H]2C(c3c(Cl)cccc3Cl)=NO[C@@H]2C(=O)N1c1ccc(Cc2ccc(N3C(=O)[C@H]4C(c5c(Cl)cccc5Cl)=NO[C@H]4C3=O)cc2)cc1`, for which the TGI in experiment [2], in experiment [3], in experiment [8], in experiment [5], in experiment [6] and in [9] was > 100 µM each time. Moreover, the TGI in experiment [7] was > 100 µM.

On to `N#CC(C(=O)C(=O)Nc1c(Cl)cccc1Cl)c1ccccc1` (stereo not drawn), for which the GI50 in experiment [2], in experiment [3], in experiment [8], in experiment [4], in experiment [5] and in experiment [6] was > 100 µM in each case. Besides, the GI50 in [9] is > 100 µM. Moreover, the TGI in [2], in experiment [3], in [8], in experiment [4], in [5] and in experiment [6] was > 100 µM each time. The TGI in [9] is > 100 µM.

Take `N#C/C(=C\c1cc(OCc2ccccc2)c(OCc2ccccc2)cn1)C(N)=O`: the TGI in experiment [2], in experiment [3], in experiment [8], in [4], in experiment [5] and in [9] was > 100 µM in each case. In addition, the TGI in experiment [7] is > 100 µM.

For `NNC(=O)C(=O)N/N=C1/CCCC1C(=O)CCC(=O)Nc1ccc(Cl)cc1` (stereo not drawn), the TGI in [2], in experiment [3], in experiment [8], in [4], in [5] and in experiment [6] was > 100 µM in each case. In addition, the TGI in experiment [9] and in [7] was > 100 µM each time.

In experiment [1], `O=c1c2ccccc2sc2c(CO)ccc(NCCN3CCCCC3)c12` yielded a TGI of 11.6 µM.

For `Nc1ncc(Cc2ccc3c(c2)OCO3)c(N)n1`, the TGI in experiment [1] was > 100 µM.

For the compound `Cc1ccc2c(c1)CN1c3ccc(C)cc3CN2C1c1ccccc1O`, the TGI in [2], in experiment [3], in [8], in experiment [5] and in [9] was > 100 µM in each case.

For the compound `O=c1/c(=C/c2ccccc2[N+](=O)[O-])sc2nnc(-c3cccnc3)n12`, the TGI in [2], in [3], in experiment [8], in experiment [4], in experiment [5] and in experiment [6] was > 100 µM in each case. Also, the TGI in [9] and in experiment [7] was > 100 µM each time.

Source of the values: PubChem BioAssay (NCI).
